From patent publication US20160264925A1, “Reagents for Lysis of Bacterial Cells” (Roche Diagnostics Operations, Inc., priority 2009, published 2016)

Assays:
[1] = system: Escherichia coli BMTU 3294; assay: Lysis of microbial cells in suspension, microscopic assessment (SYTO 9 staining): Gram-negative; type: cell-based; conditions: for lysis of Gram-negative cell walls, summary in words: reagent and concentration as in Tables 1 and 2 (Example 4)
Description: (§1) Cell suspensions containing between about 10^7 and about 10^8 cells/ml were prepared.
(§2) The LIVE/DEAD® BacLight Bacterial Viability Kits supplied by Invitrogen utilize mixtures of the SYTO® 9 green-fluorescent nucleic acid stain (Invitrogen) and the red-fluorescent nucleic acid stain, propidium iodide. These stains differ both in their spectral characteristics and in their ability to penetrate healthy bacterial cells. When used alone, the SYTO® 9 stain generally labels all bacteria in a population—those with intact membranes and those with damaged membranes. In contrast, propidium iodide penetrates only bacteria with damaged membranes, causing a reduction in the SYTO® 9 stain fluorescence when both dyes are present.
(§3) Each mixture was incubated for 15 min at 56° C.
(§4) For the lysis experiments, all possible combinations of lysis buffers L1.1 to L11.1 with cell suspensions (A), (B), and (C) were examined.
(§5) An incubated cell suspension with bacteria was scored as a “positive” lysate if in the incubated mixture SYTO® 9 stainable morphological structures corresponding to the respective bacterial cells were not detectable. Otherwise, when SYTO® 9 stainable morphological structures were still present, the incubated cell suspension was scored as “negative”. In an analogous way, a cell suspension with yeast cells was scored, however based on Calcofluor™ White M2R staining.
(§6) In each experiment a direct comparison was made using the fluorescent label on an untreated but similarly diluted cell suspension as a reference. In order to exclude any influence of a compound in the lysis reagents on fluorescence, any presence or absence of morphological structures corresponding to the respective microbial cells was verified using light microscopy.

[2] = system: Staphylococcus carnosus BMTU 7329; assay: Lysis of microbial cells in suspension, microscopic assessment (SYTO 9 staining): Gram-positive; type: cell-based; conditions: for lysis of Gram-positive cell walls, summary in words: reagent and concentration as in Tables 1 and 2 (Example 4)
Description: as §1, §2, §3, §4, §5, §6

[3] = about 2.25 M in the mixture with the bacterial suspension

Molecule | destruction of Gram-negative cell walls ([1]; 375 mM in the mixture) | destruction of Gram-negative cell walls [1, 3] | destruction of Gram-positive cell walls ([2]; 375 mM in the mixture) | destruction of Gram-positive cell walls [2, 3] | destruction of Gram-negative cell walls ([1]; 247.5 mM (or lower)) | destruction of Gram-positive cell walls ([2]; 247.5 mM (or lower)) | lysis of Gram-negative cell walls, summary in words [1] | lysis of Gram-positive cell walls, summary in words [2] | further results
N#CS.N=C(N)N [GuaSCN, Guanidine thiocyanate, reference compound] | ineffective | destroyed | ineffective | destroyed | – | – | – | – | –
1-butyl-3-methyl-imidazolium-octylsulfate | – | – | – | – | falls short of destroying bacterial cell walls | falls short of destroying bacterial cell walls | – | – | destruction of Gram-negative cell walls ([1]; higher than 247.5 mM and up to 375 mM): capable of destroying the cell walls of Gram-negative bacteria; destruction of Gram-positive cell walls ([2]; any concentration tested): no concentration was found
1-butyl-3-methyl-imidazolium-2(2-methoxyethoxy)ethylsulfate [ECOENG™41M] | – | – | – | – | – | – | destroy the cell walls of both Gram-positive and Gram-negative cells | destroy the cell walls of both Gram-positive and Gram-negative cells | concentration required to destroy Gram-negative cell walls together with Gram-positive, relative to BMIM-SCN (about 2.25 M in the mixture) ([1]; lysis reagent L2.1): a quarter of this concentration; concentration required to destroy Gram-positive cell walls, relative to BMIM-SCN (about 2.25 M in the mixture) ([2]; lysis reagent L2.1): a quarter of this concentration
1-butyl-3-methyl-imidazolium-thiocyanate [BMIM-SCN] | falls short of destroying bacterial cell walls | destroyed | falls short of destroying bacterial cell walls | destroyed | – | – | destroy the cell walls of both Gram-positive and Gram-negative cells | destroy the cell walls of both Gram-positive and Gram-negative cells | destruction of Gram-negative cell walls ([1]; about 562.5 mM in the mixture): lysed
Cc1ccc(S(=O)(=O)[O-])cc1.Cc1ccc(S(=O)(=O)[O-])cc1.Cn1cc[n+](CCCC[n+]2ccn(C)c2)c1 [MITS, 1-methyl-1-[4-(3-methyl-3H-imidazol-1-ium)-but-1-yl]-3H-imidazolium-di(toluylsulfate)] | – | – | – | – | neither Gram-negative nor Gram-positive cell walls were destroyed | neither Gram-negative nor Gram-positive cell walls were destroyed | – | – | destruction of Gram-positive cell walls ([2]; 247.5 mM increased by about 50% or more): destruction of Gram-positive cell walls
